In paper PMC10056899, “Neuroprotective and Antiherpetic Properties of Polyphenolic Compounds from Maackia amurensis Heartwood” (Molecules, 2023):
Values joined by “and” are separate entries in the source; they are usually repeats but may differ in a detail not shown here. Identical values can stand only once. Like-named read-outs stand apart in the source and are kept apart here.

Tests used:
[1] = system: HSV-1; test: Anti-HSV-1 activity, HSV-1 DNA level by real-time PCR (RT-PCR); type: cell-based, HSV-1 strain L2; settings: 5 µg/mL, simultaneous treatment, 48 h; for 1, 4 and Maxar given on average
Description: The anti-HSV-1 activity of the polyphenolic compounds from M. amurensis was also studied using the real-time PCR (RT-PCR) technique (Figure 5 and Table S69, Supplementary Data). Vero cells were simultaneously infected with 100 TCD50/mL HSV-1 and treated with polyphenolic compounds 1–6 at concentrations of 50 and 5 μg/mL. After 48 h of cell incubation, viral DNA was extracted from the supernatants, and the relative level of HSV-1 DNA was determined using RT-PCR. The effect of stilbenes on the relative level of viral DNA was assessed by 2^−ΔCt method and reported as fold reduction relative to virus control, to which the value of 1.0 was assigned.
For the viral DNA extraction assay, Vero cells grown in 96-well plates were infected with HSV-1 and simultaneously treated with polyphenolic compounds and incubated at 37 °C in a CO2-incubator for 48 h. After incubation, the culture media and the cells scraped from the plate were transferred to centrifuge tubes. The cell debris was removed by centrifugation at 300× g for 10 min. Then, supernatant was collected and kept at −20 °C. The HSV-1 DNA was extracted from supernatant by using the AmpliSens® DNA-sorb-AM (K1-12-100-CE) nucleic acid extraction kit (Moscow, Russia) according to the manufacturer′s instructions. […]
The DNA HSV was detected in the obtained DNA samples using the AmpliSens® HSV I, II-FRT-100F PCR kit (Moscow, Russia) on a real-time PCR instrument Rotor-Gene Q (Qiagen, Hilden, Nordrhein-Westfalen, Germany) according to the manufacturer′s instructions. […] In the real-time PCR, the amplified product is detected with the use of fluorescent dyes. […] The threshold cycle number, Ct, was measured as the PCR cycle, where the amount of amplified target reached the threshold value. The reduction in the HSV-1 DNA levels in culture supernatants was assessed by the change in the threshold cycle (ΔCt) (Equation (4)):(4) ΔCt=Cttv−Ctcv where: • Cttv is the average Ct value for the infected samples after treatment with polyphenolic compounds; • Ctcv corresponds to the average Ct value for the virus control. […]

[2] = DPPH radical scavenging assay; settings: 20 min; for IC50: read-out: DPPH Scavenging Effect IC50
Description: The DPPH (2,2-diphenyl-1-picrylhydrazyl) scavenging effect of polyphenolic compounds 1-6 from M. amurensis heartwood was evaluated as described previously in [40]. Stilbenes were added to DPPH solution in MeOH (10^−4 M) at a concentration range from 1 to 34 µM. The mixture was kept in the dark at room temperature for 20 min. Then, we measured the absorbance at 517 nm using a Shimadzu UV 1240 spectrophotometer (Shimadzu, Kyoto, Japan). The DPPH radical-scavenging effect (%) of the stilbenes was calculated using Equation (1): (1) DPPH scavenging effect, %=A0−Ax/A0×100, where: • A0 is the absorbance of DPPH solution without polyphenolic compounds (blank sample); • Ax is the absorbance of DPPH solution in the presence of different concentrations of polyphenolic compounds.
Quercetin and ascorbic acid were used as reference compounds. All experiments were performed in triplicate. The half maximal inhibitory concentration (IC50) for polyphenolic compounds was calculated by plotting the DPPH scavenging effect (%) against the concentrations of polyphenolic compounds. IC50 values are given as the mean ± SEM.

[3] = system: HSV-1; test: Anti-HSV-1 activity, cytopathic effect (CPE) inhibition assay in Vero cells; type: cell-based, HSV-1 strain L2; settings: for IC50: read-out: IC50 (CPE assay); for SI = CC50/IC50: Vero cells, HSV-1
Description: The HSV-1 strain L2 and Vero cell culture (kidney epithelial cells of the African green monkey Chlorocebus sp.) were obtained from the N.F. Gamaleya Federal Research Centre for Epidemiology and Microbiology (Moscow, Russia). HSV-1 was grown in Vero cells, using Dulbecco′s Modified Eagle′s Medium (DMEM, Biolot, St. Petersburg, Russia) supplemented with 10% fetal bovine serum (FBS, Biolot, St. Petersburg, Russia) and 100 U/mL of gentamycin (Dalkhimpharm, Khabarovsk, Russia), at 37 °C in a CO2 incubator. In the maintenance medium, the FBS concentration was decreased to 1%.
The tested compounds were dissolved in DMSO (Sigma, St. Louis, MO, USA) at a concentration 10 mg/mL and stored at −20 °C. For cytotoxicity and anti-HSV-1 activity determination, the stock solutions were diluted with DMEM so that the final concentration of DMSO was 0.5%.
The anti-HSV-1 activity of stilbenes was evaluated using cytopathic effect (CPE) inhibition assay in Vero cells. We infected the monolayer of cells grown in 96-well plates (1 × 10^4 cells/well) with 100 µL/well of virus suspension (100 TCD50/mL) and we simultaneously treated it with stilbenes 1–6 (100 µL/well) at various concentrations (from 1 to 400 μg/mL) for one hour at 37 ◦C. After virus absorption, we removed the mixture of virus and stilbenes, washed the cells, and added the maintenance medium with 1% FBS. […] We used MTT assay to evaluate the antiviral activity of stilbenes. The viral inhibition rate (IR, %) was calculated according to Equation (3):(3) IR, %=Atv−Acv/Acd−Acv×100, where: • Atv is the absorbance of cells infected with virus and treated with a polyphenolic compound; • Acv is the absorbance of the untreated virus-infected cells; • Acd is the absorbance of control (untreated and non-infected) cells.
The selectivity index (SI) was calculated as the ratio of CC50 to IC50. Experiments were repeated three times.

Row | SMILES | Reduction of relative level of HSV-1 DNA relative to virus control [1] [log10] | DPPH Scavenging Effect IC50 [2] [µg] | IC50 [2] [µM] | IC50 ([3]; Human alphaherpesvirus 1, added to Vero cells simultaneously with the virus, 100 TCD50/mL) | SI = CC50/IC50 [3] | IC50 ([3]; Human alphaherpesvirus 1, Vero)
1 | Oc1ccc(/C=C/c2cc(O)cc3c2[C@H](c2cc(O)cc(O)c2)[C@@H](c2ccc(O)c(O)c2)O3)cc1 [Compound 4, scirpusin A] | ~1.3 | 1.50 ± 0.19 | 3.2 ± 0.4 | 13.8 µg/mL and 29.4 µM | 14.4 ± 1.7 | –
2 | COc1ccc([C@@H]2COc3cc(O)ccc3[C@H]2c2c(O)cc(O)cc2/C=C/c2ccc(O)c(O)c2)c(O)c1 [Compound 1] | ~1.3 | 2.25 ± 0.25 | 4.3 ± 0.5 | – | 11.6 ± 1.3 | 14 µg/mL and 27.2 µM
